Results as given in the supplement of paper PMC10307832.

Assays:
Assay in all cases: relative viability (nuclei count vs DMSO), 5 days (fraction); higher = more cells survive
[1] = compound: C1/C(=C\C2=CC=CS2)/C(=O)/C(=C/C3=CC=CS3)/C1 + COc1cccc2cc(-c3nc([C@H]4CC[C@H](C(=O)O)CC4)n4ncnc(N)c34)[nH]c12 [OSI-027] (partner 0.5 µM)
How it was run: (§1)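 After 5 days of treatment, lung cancer cells in 1536-well plates were fixed and stained in a single step (final 0.05% Triton X-100, 1% formaldehyde, 1 ug/ml Hoechst) and their nuclei counted on 4× images. Treatment had been applied by pin tool the day after seeding as one drug alone or as a fixed anchor-drug dose with five library-drug doses (not always all listed) in √10 steps. Relative viability is the nuclei count of treated wells divided by that of vehicle wells, and values are medians of duplicate plates.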

[2] = compound: C1/C(=C\C2=CC=CS2)/C(=O)/C(=C/C3=CC=CS3)/C1 + Cc1nc(Nc2ncc(C(=O)Nc3c(C)cccc3Cl)s2)cc(N2CCN(CCO)CC2)n1 [Dasatinib] (partner 0.075 µM)
How it was run: as §1

[3] = compound: C1=CC(=CC=C1C2=CC(=C(S2)NC(=O)N)C(=O)N)F [TPCA-1] + CC(=O)Nc1cccc(-n2c(=O)n(C3CC3)c(=O)c3c(Nc4ccc(I)cc4F)n(C)c(=O)c(C)c32)c1 [Trametinib] (partner 0.02 µM)
How it was run: as §1

[4] = compound: C1=CC(=CC=C1C2=CC(=C(S2)NC(=O)N)C(=O)N)F [TPCA-1] + N=C(N)NC(=N)NCCc1ccccc1 [Phenformin] (partner 250 µM)
How it was run: as §1

Cell Line | relative viability ([1]; first compound 0.2 µM) | relative viability ([1]; first compound 0.6325 µM) | relative viability ([1]; first compound 2 µM) | relative viability ([1]; first compound 6.325 µM) | relative viability ([1]; first compound 20 µM) | relative viability ([2]; first compound 0.2 µM) | relative viability ([2]; first compound 0.6325 µM) | relative viability ([2]; first compound 2 µM) | relative viability ([2]; first compound 6.325 µM) | relative viability ([2]; first compound 20 µM) | relative viability ([3]; first compound 0.04 µM) | relative viability ([3]; first compound 0.1265 µM) | relative viability ([3]; first compound 0.4 µM) | relative viability ([3]; first compound 1.265 µM) | relative viability ([3]; first compound 4 µM) | relative viability ([4]; first compound 0.04 µM) | relative viability ([4]; first compound 0.1265 µM) | relative viability ([4]; first compound 0.4 µM) | relative viability ([4]; first compound 1.265 µM) | relative viability ([4]; first compound 4 µM)
ChaGo-K-1 | 0.549 | 0.59 | 0.588 | 0.491 | 0.268 | 0.546 | 0.669 | 0.592 | 0.51 | 0.286 | 0.895 | 0.715 | 0.876 | 0.822 | 0.676 | 0.524 | 0.472 | 0.54 | 0.48 | 0.259
COR-L23 | 0.804 | 0.816 | 0.732 | 0.709 | 0.749 | 0.571 | 0.48 | 0.571 | 0.429 | 0.492 | 0.715 | 0.512 | 0.713 | 0.547 | 0.33 | 0.483 | 0.47 | 0.436 | 0.415 | 0.328
EMC-BAC-2 | 0.411 | 0.383 | 0.432 | 0.337 | 0.389 | 0.359 | 0.372 | 0.366 | 0.306 | 0.431 | 0.869 | 0.811 | 0.979 | 0.742 | 0.906 | 0.604 | 0.476 | 0.571 | 0.4 | 0.247
LCLC-103H | 0.466 | 0.464 | 0.603 | 0.502 | 0.426 | 0.402 | 0.466 | 0.572 | 0.481 | 0.444 | 0.689 | 0.671 | 0.689 | 0.725 | 0.684 | 0.335 | 0.321 | 0.345 | 0.332 | 0.357
